In PubChem BioAssay (NCI):
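Test compounds were applied to cells in 96-well plates for 48 hours at 5 doses. TGI: concentration producing complete growth inhibition.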

Key:
Assay in all cases: DTP human tumour cell line panel, 48 h
[1] = system: A549 NSCLC
[2] = system: KM12 colon
[3] = system: SW-620 colon
[4] = system: 786-0 renal
[5] = system: HOP-92 NSCLC
[6] = system: MDA-MB-435
[7] = system: OVCAR-5 ovarian
[8] = system: HOP-62 NSCLC
[9] = system: M14 melanoma
[10] = system: LOX IMVI melanoma
[11] = system: UACC-257 melanoma
[12] = system: SN12C renal
[13] = system: MDA-N
[14] = system: NCI-H226 lung
[15] = system: IGROV1 ovarian
[16] = system: HS 578T breast
[17] = system: NCI-H23 lung
[18] = system: MOLT-4 leukemia
[19] = system: SK-OV-3 ovarian
[20] = system: UACC-62 melanoma
[21] = system: RXF 393 renal
[22] = system: SNB-75 CNS
[23] = system: OVCAR-8 ovarian
[24] = system: SK-MEL-28 melanoma
[25] = system: ACHN renal
[26] = system: BT-549 breast
[27] = system: TK-10 renal
[28] = system: UO-31 renal
[29] = system: SR leukemia
[30] = system: MDA-MB-231 breast
[31] = system: CCRF-CEM leukemia
[32] = system: OVCAR-3 ovarian
[33] = system: NCI-H522 lung
[34] = system: SF-295 CNS
[35] = system: PC-3 prostate
[36] = system: CAKI-1 renal
[37] = system: MALME-3M melanoma
[38] = system: HCT-116 colon
[39] = system: NCI/ADR-RES ovarian
[40] = system: EKVX NSCLC
[41] = system: HCT-15 colon
[42] = system: SK-MEL-2 melanoma
[43] = system: HL-60(TB) leukemia
[44] = system: COLO 205 colon
[45] = system: U251 CNS
[46] = system: HT29 colon
[47] = system: OVCAR-4 ovarian
[48] = system: SF-268 CNS
[49] = system: SF-539 CNS
[50] = system: RPMI-8226 leukemia
[51] = system: K-562 leukemia
[52] = system: SNB-19 CNS
[53] = system: SK-MEL-5 melanoma
[54] = system: NCI-H460 lung
[55] = system: HCC-2998 colon

COc1ccc(N=Nc2c(O)ccc3ccccc23)cc1
TGI [1]: 39.5 µM | TGI [2]: 24.9 µM | TGI [3]: > 100 µM | TGI [4]: > 100 µM | TGI [5]: 47.7 µM | TGI [6]: > 100 µM | TGI [7]: 60.6 µM | TGI [8]: 26.7 µM | TGI [9]: > 100 µM | TGI [10]: > 100 µM | TGI [11]: > 100 µM | TGI [12]: > 100 µM | TGI [13]: > 100 µM | TGI [14]: 47.6 µM | TGI [15]: 24.2 µM | TGI [16]: 23.2 µM | TGI [17]: 85.2 µM | TGI [18]: > 100 µM | TGI [19]: 28.1 µM | TGI [20]: 36.3 µM | TGI [21]: > 100 µM | TGI [22]: 37.7 µM | TGI [23]: 29.1 µM | TGI [24]: > 100 µM | TGI [25]: 57.7 µM | TGI [26]: 56.1 µM | TGI [27]: 34 µM | TGI [28]: > 100 µM | TGI [29]: 41.7 µM | TGI [30]: 96.5 µM | TGI [31]: > 100 µM | TGI [32]: > 100 µM | TGI [33]: 60.9 µM | TGI [34]: 30.1 µM | TGI [35]: > 100 µM | TGI [36]: > 100 µM | TGI [37]: 32.9 µM | TGI [38]: > 100 µM | TGI [39]: > 100 µM | TGI [40]: 34.8 µM | TGI [41]: > 100 µM | TGI [42]: > 100 µM | TGI [43]: > 100 µM | TGI [44]: > 100 µM | TGI [45]: 30.6 µM | TGI [46]: 38 µM | TGI [47]: 32.3 µM | TGI [48]: 37.7 µM

Cc1cc(C)c(C2CC(O)C(CO)O2)cc1C (centres undefined)
TGI [1]: > 100 µM | TGI [2]: > 100 µM | TGI [49]: > 100 µM | TGI [3]: > 100 µM | TGI [50]: > 100 µM | TGI [51]: > 100 µM | TGI [4]: > 100 µM | TGI [6]: > 100 µM | TGI [7]: > 100 µM | TGI [8]: > 100 µM | TGI [9]: > 100 µM | TGI [10]: > 100 µM | TGI [11]: > 100 µM | TGI [12]: > 100 µM | TGI [13]: > 100 µM | TGI [14]: > 100 µM | TGI [15]: > 100 µM | TGI [16]: > 100 µM | TGI [17]: > 100 µM | TGI [18]: > 100 µM | TGI [19]: > 100 µM | TGI [20]: > 100 µM | TGI [22]: > 100 µM | TGI [23]: > 100 µM | TGI [24]: > 100 µM | TGI [25]: > 100 µM | TGI [26]: > 100 µM | TGI [27]: > 100 µM | TGI [28]: > 100 µM | TGI [29]: > 100 µM | TGI [30]: > 100 µM | TGI [31]: > 100 µM | TGI [32]: > 100 µM | TGI [33]: > 100 µM | TGI [34]: > 100 µM | TGI [52]: > 100 µM | TGI [35]: > 100 µM | TGI [53]: > 100 µM | TGI [36]: > 100 µM | TGI [37]: > 100 µM | TGI [38]: > 100 µM | TGI [39]: > 100 µM | TGI [40]: > 100 µM | TGI [41]: > 100 µM | TGI [42]: > 100 µM | TGI [54]: > 100 µM | TGI [55]: > 100 µM | TGI [45]: > 100 µM | TGI [46]: > 100 µM | TGI [47]: > 100 µM | TGI [48]: > 100 µM
